Patent US20230416291A1, “HIGH-PURITY ß-NICOTINAMIDE MONONUCLEOTIDE (NMN) AND METHOD FOR PRODUCING SAME” (MIRAILAB BIOSCIENCE INC., priority 2020, published 2023)

Assays:
[1] = Stability test on NMN produced by a conventional method (Comparative Examples); format: physicochemical
Excerpt: Results of a stability test on NMN produced by a conventional method (method involving neither the step IV nor the step V according to the present invention) are shown as Comparative Examples in Table 2.

[2] = Stability of high-purity βNMN on preservation, purity by LC-UV area normalization; format: physicochemical; conditions: for Purity, Average value: three samples
Protocol: In the area normalization method based on LC-UV, a NMN sample is dissolved in an appropriate amount of water and subjected to LC-UV measurement at a detection wavelength of 266 nm using an apparatus, for example, LC-30AD (manufactured by Shimadzu Corp.). The ratio (%) of the area of the main component to the total area of chromatogram peaks of the obtained sample can be regarded as the purity (%) of βNMN. In the area normalization method based on LC-UV, the high-purity βNMN obtained in the section (5) was dissolved in an appropriate amount of water and subjected to LC-UV measurement under the following conditions. • Apparatus name: LC-30AD (manufactured by Shimadzu Corp.) • Detection wavelength: 266 nm The ratio (%) of the area of the main component to the total area of chromatogram peaks of the obtained sample was regarded as the purity (%) of βNMN. As a result, the purity of the high-purity βNMN obtained in the section (5) was 99.2%. The high-purity βNMN obtained in the section (5) was preserved at 4° C., 25° C., or 40° C. and examined for its stability. Each sample was provided as three samples per condition. The purity of βNMN in each sample during preservation, 1 month later, 2 months later, and 3 months later was measured by the area normalization method based on LC-UV.

Question: What does the source list for `NC(=O)c1ccc[n+]([C@@H]2O[C@H](COP(=O)([O-])O)[C@@H](O)[C@H]2O)c1` [NMN produced by a conventional method, nicotinamide mononucleotide]?
Answer: Purity ([1]; 4° C., 1 day later): 97.92%; Purity ([1]; 4° C., 2 days later): 97.78%; Purity ([1]; 4° C., 3 days later): 97.60%; Purity ([1]; 4° C., 7 days later): 97.57%; Purity ([1]; 4° C., 15 days later): 97.54%; Purity ([1]; 4° C., 30 days later): 97.26%; Purity ([1]; 4° C., At start of preservation): 97.94%; Purity ([1]; 25° C., 1 day later): 97.11%; Purity ([1]; 25° C., 2 days later): 96.04%; Purity ([1]; 25° C., 3 days later): 95.98%; Purity ([1]; 25° C., 7 days later): 90.55%; Purity ([1]; 25° C., 15 days later): 81.74%; Purity ([1]; 25° C., 30 days later): 65.66%; Purity ([1]; 25° C., At start of preservation): 97.94%; Stability in words ([1]; preserved at 4° C. for 30 days): able to maintain the purity obtained at the start of preservation for 30 days

Question: With `NC(=O)c1ccc[n+]([C@@H]2O[C@H](COP(=O)([O-])O)[C@@H](O)[C@H]2O)c1` [high-purity βNMN, β-nicotinamide mononucleotide] as the molecule, how does the “Purity maintained on preservation” value ([2]; for 3 months at any temperature of 4° C., 25° C., and 40° C.) read?
Answer: ≥ 99%

Question: And the “Purity, Average value” ([2]; preserved at 4° C., 1 month later)?
Answer: 99.64%

Question: What about the “Purity, Average value” ([2]; preserved at 4° C., 2 months later) of the same molecule?
Answer: 99.51%

Question: What about the “Purity, Average value” ([2]; preserved at 4° C., 3 months later) of the same molecule?
Answer: 99.66%

Question: What about the “Purity, Average value” ([2]; preserved at 4° C., During preservation) of the same molecule?
Answer: 99.69%

Question: What about the “Purity, Average value” ([2]; preserved at 25° C., 1 month later) of the same molecule?
Answer: 99.26%

Question: And the “Purity, Average value” ([2]; preserved at 25° C., 2 months later)?
Answer: 99.45%

Question: And the “Purity, Average value” ([2]; preserved at 25° C., 3 months later)?
Answer: 99.57%

Question: And the “Purity, Average value” ([2]; preserved at 25° C., During preservation)?
Answer: 99.69%

Question: And the “Purity, Average value” ([2]; preserved at 40° C., 1 month later)?
Answer: 99.51%

Question: And the “Purity, Average value” ([2]; preserved at 40° C., 2 months later)?
Answer: 99.27%

Question: What about the “Purity, Average value” ([2]; preserved at 40° C., 3 months later) of the same molecule?
Answer: 99.35%

Question: And the “Purity, Average value” ([2]; preserved at 40° C., During preservation)?
Answer: 99.69%
